Data on 55 molecules can be found in publication PMC6792352, “Limited Chemical Structural Diversity Found to Modulate Thyroid Hormone Receptor in the Tox21 Chemical Library” (Environmental Health Perspectives, 2019).

This data set can be described thus: in vitro. The note with it: rat, gh3-tre-luc cells.

In general, CC50 refers to the concentration at which the toxic effect on the cells reaches its halfway point.

Where a name gives a salt, the structure may show the parent alone.

For `CC(=O)OCC(=O)[C@@]1(O)CC[C@H]2[C@@H]3CCC4=CC(=O)C=C[C@]4(C)[C@@]3(F)[C@@H](O)C[C@@]21C` [Isoflupredone acetate], the CC50 at 24 h (AC50 (uM) modified / 1000) was over 20 µM. The same measure, in the same setting: then `C=C(C)C(=O)Nc1ccc(Cl)c(Cl)c1` [Chloranocryl], with over 90 µM.

As for `C=CC(=O)OCC(CC)CCCC` (centres unmarked) [2-Ethylhexyl acrylate], for the setting “AC50 (uM) modified / 1000”, the CC50 at 24 h was over 90 µM. In the case of `Nc1nc(Cl)cc(Cl)n1` [2-Amino-4,6-dichloropyrimidine], under “AC50 (uM) modified / 1000”, the CC50 at 24 h is over 90 µM. On the same count and under the same terms, then `NC(=O)NS(=O)(=O)c1ccc(N)cc1` [Sulfacarbamide], with over 50 µM. On the same count and under the same terms, the figure for `OC[C@H]1O[C@H](O[C@H]2O[C@H](CO)[C@@H](O)[C@H](O)[C@H]2O)[C@H](O)[C@@H](O)[C@@H]1O` [Trehalose dihydrate] is over 90 µM; for `BrCC(Br)(Br)Br` [1,1,1,2-Tetrabromoethane] it is over 90 µM. Same read-out and setting: the figure for `CCO/N=C(\CC)C1=C(O)CC(c2c(C)cc(C)cc2C)CC1=O` (centres unmarked) [Tralkoxydim] is over 90 µM; for `CN(C)C1CSSSC1` [Thiocyclam oxalate] it is over 90 µM; for `CCCCCCCCCCC(=O)O` [Undecanoic acid] it is over 90 µM. Regarding `CC1=CC(=O)[C@H]2C[C@@H]1C2(C)C` [L-Verbenone], the CC50 at 24 h (AC50 (uM) modified / 1000) is over 90 µM. On the same count and under the same terms, then `CC(C)(C)NCC(O)c1ccc(O)c(CO)c1` (centres unmarked) [Albuterol], with over 90 µM; and `Nc1c(CC(=O)O)cccc1C(=O)c1ccc(Br)cc1` [Bromfenac sodium sesquihydrate], with over 50 µM. For the molecule `O=C(CCCN1CCC(O)(c2ccc(Br)cc2)CC1)c1ccc(F)cc1` [Bromperidol], the CC50 at 24 h (AC50 (uM) modified / 1000) was over 20 µM. The molecule `COP(=S)(Oc1cc(Cl)c(Br)cc1Cl)c1ccccc1` (centres unmarked) [Leptophos] yielded a CC50 at 24 h (AC50 (uM) modified / 1000, Tox21_110001=Tox21_301903, viability, 1 nM T3 present, 24 h) of 72.3 µM.

`C=C(C)C(=O)OC1CC(C)CC(C)(C)C1` (centres unmarked) [3,3,5-Trimethylcyclohexyl 2-methylprop-2-enoate]: under “AC50 (uM) modified / 1000”, the CC50 at 24 h was over 90 µM. As to `N=C(N)NCc1cccc(I)c1` [3-Iodobenzylguanidine hemisulfate], the CC50 at 24 h (AC50 (uM) modified / 1000) was over 50 µM.

Where the note is “AC50 (uM) modified / 1000”, `CC1(COc2ccc(CC3SC(=O)NC3=O)cc2)CCCCC1` (centres unmarked) [Ciglitizone] had a CC50 at 24 h of 26.4 µM. Consider `c1ccc(OCC2CO2)cc1` (centres unmarked) [Phenyl glycidyl ether], for which, for the setting “AC50 (uM) modified / 1000”, the 50% cytotoxic concentration (CC50) at 24 h was over 90 µM.

As for `O=[N+]([O-])c1cccc2ccccc12` [1-Nitronaphthalene], the CC50 at 24 h (AC50 (uM) modified / 1000) is over 90 µM. Same read-out and setting: then `Cc1ccc(NC(N)=O)cc1` [p-Tolylurea], with over 90 µM. Molecule `O=C(NO)C1(NS(=O)(=O)c2ccc(Oc3ccc(F)cc3)cc2)CCOCC1` [CP-544439] returned a CC50 at 24 h (AC50 (uM) modified / 1000) of over 90 µM. The molecule `CCCCCCCCCCCC(C)=O` [2-Tridecanone] yielded a 50% cytotoxic concentration (CC50) at 24 h (AC50 (uM) modified / 1000) of over 90 µM. Still for that read-out and setting: the figure for `C=CC(=O)Nc1cc2c(Nc3ccc(F)c(Cl)c3)ncnc2cc1OCCCN1CCOCC1` [Canertinib] is 4.7 µM; for `COC(=O)C1=C(C)NC(C)=C(C(=O)OCCCN2CCC(c3ccccc3)(c3ccccc3)CC2)C1c1cccc([N+](=O)[O-])c1` (racemic) [(+/-) -Niguldipine hydrochloride (1:x)] it is 12.3 µM.

`CC1CCC(=O)O1` (centres unmarked) [4-Pentanolide]: the half-maximal cytotoxic concentration (CC50) at 24 h (AC50 (uM) modified / 1000, Tox21_110001=Tox21_302624, viability, 1 nM T3 present, 24 h) is over 90 µM. Turning to `CC1(C)S[C@@H]2[C@H](NC(=O)COc3ccccc3)C(=O)N2[C@H]1C(=O)O` [Penicillin VK], for the setting “AC50 (uM) modified / 1000”, the CC50 at 24 h was over 90 µM.

In the case of `C=C1C[C@@]23CC[C@H]4[C@@](C)(CCC[C@@]4(C)C(=O)O[C@@H]4O[C@H](CO)[C@@H](O)[C@H](O)[C@H]4O)[C@@H]2CC[C@]1(O[C@@H]1O[C@H](CO)[C@@H](O)[C@H](O)[C@H]1O[C@@H]1O[C@H](CO)[C@@H](O)[C@H](O[C@@H]2O[C@H](CO)[C@@H](O)[C@H](O)[C@H]2O)[C@H]1O)C3` [Rebaudioside A], for the setting “AC50 (uM) modified / 1000”, the cytotoxic concentration (CC50) at 24 h was over 90 µM. `CCOP(=O)(OCC)Oc1cc(C)nc(C(C)C)n1` [Diazoxon] yielded a CC50 at 24 h (AC50 (uM) modified / 1000, Tox21_110001=Tox21_301125, viability, 1 nM T3 present, 24 h) of over 90 µM. Molecule `Cc1cc(O)c2c(O)c3c(O)cccc3cc2c1` [Chrysarobin] showed a CC50 at 24 h (AC50 (uM) modified / 1000) of over 50 µM.

Molecule `Oc1ccc(Cl)cc1Cl` [2,4-Dichlorophenol] displayed a CC50 at 24 h (AC50 (uM) modified / 1000) of over 90 µM.

Take `CCCCCc1cc(O)c2c(c1)OC(C)(C)[C@@H]1CCC(C)=C[C@@H]21` [Tetrahydrocannabinol]: the CC50 at 24 h (AC50 (uM) modified / 1000) is 10.9 µM. In the case of `CCC(=C(CC)c1ccc(O)cc1)c1ccc(O)cc1` [(Z,E)-Diethylstilbestrol], where the note is “AC50 (uM) modified / 1000”, half-maximal cytotoxicity (CC50 at 24 h) was put at 12.2 µM. The CC50 at 24 h values of the last two molecules are within 1.5-fold of each other.

Molecule `CNc1ccccc1` [N-Methylaniline] came in with a CC50 at 24 h (AC50 (uM) modified / 1000) of over 90 µM.

For the molecule `OC[C@H]1O[C@@](CO)(O[C@H]2O[C@H](CO)[C@@H](O)[C@H](O)[C@H]2O)[C@@H](O)[C@@H]1O` [Sucrose], under “AC50 (uM) modified / 1000”, the CC50 at 24 h was over 90 µM. For the molecule `CC(=O)O[C@]1(C(C)=O)CC[C@H]2[C@@H]3C[C@H](C)C4=CC(=O)CC[C@]4(C)[C@H]3CC[C@@]21C` [Medroxyprogesterone acetate], for the setting “AC50 (uM) modified / 1000”, the CC50 at 24 h is over 90 µM. On the same count and under the same terms, then `O=C(NCCNCC(O)COc1ccc(O)cc1)N1CCOCC1` (centres unmarked) [Xamoterol], with over 50 µM.

For the molecule `C[C@H]1CCC[C@H](O)CCCCCc2cc(O)cc(O)c2C(=O)O1` [Zearalanol], the half-maximal cytotoxic concentration (CC50) at 24 h by setting is: (AC50 (uM) modified / 1000, Tox21_110001=Tox21_110973, viability, 1 nM T3 present, 24 h) over 50 µM; (AC50 (uM) modified / 1000, Tox21_110001=Tox21_201203, viability, 1 nM T3 present, 24 h) 53.6 µM. Under “AC50 (uM) modified / 1000”, `O=C(/C=C/C=C/c1ccc2c(c1)OCO2)N1CCCCC1` [Piperine] registered a CC50 at 24 h of over 90 µM.

As to `COc1cc(NS(C)(=O)=O)ccc1Nc1c2ccccc2nc2ccccc12` [Amsacrine hydrochloride], the CC50 at 24 h (AC50 (uM) modified / 1000) worked out at 0.432 µM. The same measure, in the same setting: then `NCC[C@H](O)C(=O)N[C@@H]1C[C@H](N)[C@@H](O[C@H]2O[C@H](CN)[C@@H](O)[C@H](O)[C@H]2N)[C@H](O[C@@H]2O[C@H](CO)C(O)[C@H]2O)[C@H]1O` (some centres unmarked) [Butirosin disulfate], with over 20 µM; and `CC(=O)Oc1cccc(C)c1` [m-Cresyl acetate], with over 50 µM. The same measure, in the same setting: then `OCCN1CCN(CCCN2c3ccccc3Sc3ccc(Cl)cc32)CC1` [Perphenazine], with 4.46 µM. The same measure, in the same setting: the figure for `CCCCC(CC)CN1C(=O)[C@@H]2[C@H](C1=O)[C@@H]1C=C[C@H]2C1` (some centres unmarked) [Octylbicycloheptenedicarboximide] is 53.7 µM.

With `CC1=C(O)C(=O)CO1` [4-Hydroxy-5-methyl-3-furanone], where the note is “AC50 (uM) modified / 1000”, the CC50 at 24 h is over 90 µM. On the same count and under the same terms, then `NCCC(O)(P(=O)(O)O)P(=O)(O)O` [Pamidronic acid], with over 50 µM. `CCOC(=O)Cn1c(=O)sc2cccc(Cl)c21` [Benazolin-ethyl] yielded a cytotoxic concentration (CC50) at 24 h (AC50 (uM) modified / 1000) of over 90 µM.

With `CCOC(=O)[C@H](CCc1ccccc1)N[C@@H](C)C(=O)N1C(=O)N(C)C[C@H]1C(=O)O` [Imidapril hydrochloride], under “AC50 (uM) modified / 1000”, the CC50 at 24 h is over 50 µM. The same measure, in the same setting: then `CC1(C)CC(O)CC(C)(C)N1` [2,2,6,6-Tetramethyl-4-piperidinol], with over 90 µM; and `c1ccc2c(c1)cc1ccc3cccc4ccc2c1c34` [Benzo(a)pyrene], with over 90 µM.

`Cc1ccccc1C#N` [2-Tolunitrile] had a CC50 at 24 h (AC50 (uM) modified / 1000) of over 90 µM. Molecule `Sc1nc2ccccc2[nH]1` [2-Mercaptobenzimidazole] came in with a CC50 at 24 h (AC50 (uM) modified / 1000, Tox21_110001=Tox21_201828, viability, 1 nM T3 present, 24 h) of over 90 µM.

Under “AC50 (uM) modified / 1000”, `COC(=O)NN` [Methyl carbazate] displayed a CC50 at 24 h of over 90 µM. On the same count and under the same terms, then `OC1OC[C@@H](O)[C@H](O)[C@H]1O` (stereo partly drawn) [D-Xylose], with over 90 µM; and `O=C=NCCCCCCN=C=O` [1,6-Diisocyanatohexane], with over 90 µM.
